Results reported in article PMC9568543, “Bee-safe peptidomimetic acaricides achieved by comparative genomics” (Scientific Reports, 2022).
Where a SMILES comes first, the peptide text is derived from it. Where no end group is shown, it is not given here. [ ]: non-standard residue; d: D form. Oic = O=C(O)[C@@H]1C[C@@H]2CCCC[C@@H]2N1

Tests used:
[1] = molecular target: Varroa mite proctolin receptor (VdProctR) (Varroa destructor, UniProt A0A7T1TE40); experiment: Receptor activity assay (aequorin luminescence), CHO cells transiently expressing the receptor, first set of ligands; format: cell-based; conditions: activities at 1 μM and 10 μM
Experimental: (§1) Approximately thirty hours after transfection, the cells were collected and preincubated with coelenterazine h for the functional assay, as previously described[30],[31],[52]. The ligands in serial dilutions were loaded into 96-well opaque plates. Cells treated with coelenterazine h were injected into each well on an Orion microplate luminometer (Berthold) luminescent plate reader. The luminescence was measured for 20 s immediately after the cell injections. Data analyses were performed to determine the accumulated luminescence value for 20 s after extraction of blank-well luminescence. […] The three biological replications were regressed for the dose–response curves with 95% confidence intervals (Table 1). For the tests of the second set of ligands, we used the cell line that stably expressed VdProctR, which were selected by Zeocin for 5 passages.

Varroa mites = experiment: Varroa mite feeding assay (drop on gnathosoma), paralysis/death; format: in vivo, Varroa destructor; conditions: 48 h; 200 nL on gnathosoma; 0.1 nM (methods) / 0.01 nM (Fig. 4 legend)
Experimental: In the continued bioassay, the toxicities were assessed by counting paralysis/death in feeding assay. A drop of 200 nL solution was placed on the gnathosoma of an immobilized mite for forced feedings of active components. Low levels of acute toxicities of peptidomimetics were indicated by lower than 50% effects within 6 h after the treatments. The toxic effects were increased over time and reached 100% of the effects in the 48 h treatments of 2336 (Fig. 4, ANOVA p < 0.05). In H2O control, about 10% or less of the number of individuals were paralyzed/dead. Accurate cause of the paralysis/death remains yet to be studied.
Adult female Varroa mites were collected using a sugar roll method from honey bee hives located at the East Campus apiary of the University of Nebraska (Lincoln, NE USA) in September–October 2019. The hives were not treated with chemicals for honey bee parasites or pathogens. The mites were sorted in the laboratory with a paint brush and tested within 4 h post collection. […] The number of affected (i.e., dead and/paralyzed) was observed and recorded at 1, 2, 6, 12, 24, and 48 h. The percent effect for each treatment was analyzed using a one-way analysis of variance (ANOVA) with a Tukey’s post-hoc test (GraphPad Prism, La Jolla, CA; p < 0.05).

CHO cells, empty vector = experiment: Negative control, CHO cells transfected with the empty vector; format: cell-based, Chinese hamster; conditions: 10 µM
Experimental: The receptor was also tested with a variety of peptide analogs and peptidomimetics.
Approximately thirty hours after transfection, the cells were collected and preincubated with coelenterazine h for the functional assay, as previously described[30],[31],[52]. The ligands in serial dilutions were loaded into 96-well opaque plates. Cells treated with coelenterazine h were injected into each well on an Orion microplate luminometer (Berthold) luminescent plate reader. The luminescence was measured for 20 s immediately after the cell injections. Data analyses were performed to determine the accumulated luminescence value for 20 s after extraction of blank-well luminescence. A dose–response curve was generated and the EC50 (50% effective concentration) was calculated in Origin 7 (OriginLab) as described in Jiang et al.[31],[53]. The three biological replications were regressed for the dose–response curves with 95% confidence intervals (Table 1). For the tests of the second set of ligands, we used the cell line that stably expressed VdProctR, which were selected by Zeocin for 5 passages.

[2] = tested on: honey bee FMRFamide receptor; experiment: Activity on honey bee FMRFamide receptor expressed in CHO cells; format: cell-based, Apis mellifera
Experimental: as §1, with “Honey bee FMRFamide receptor was cloned and expressed in the same system as described for the proctolin receptor. […] Approximately” for “Approximately”, “dose-response” for “dose–response”

Bombyx mori larval gut = conditions: cited from earlier work
honey bee queen = conditions: injection, 1 µL containing 1 µg; cited from earlier work

Chain of Varroa mite proctolin receptor (VdProctR) (A0A7T1TE40 entry or part of it): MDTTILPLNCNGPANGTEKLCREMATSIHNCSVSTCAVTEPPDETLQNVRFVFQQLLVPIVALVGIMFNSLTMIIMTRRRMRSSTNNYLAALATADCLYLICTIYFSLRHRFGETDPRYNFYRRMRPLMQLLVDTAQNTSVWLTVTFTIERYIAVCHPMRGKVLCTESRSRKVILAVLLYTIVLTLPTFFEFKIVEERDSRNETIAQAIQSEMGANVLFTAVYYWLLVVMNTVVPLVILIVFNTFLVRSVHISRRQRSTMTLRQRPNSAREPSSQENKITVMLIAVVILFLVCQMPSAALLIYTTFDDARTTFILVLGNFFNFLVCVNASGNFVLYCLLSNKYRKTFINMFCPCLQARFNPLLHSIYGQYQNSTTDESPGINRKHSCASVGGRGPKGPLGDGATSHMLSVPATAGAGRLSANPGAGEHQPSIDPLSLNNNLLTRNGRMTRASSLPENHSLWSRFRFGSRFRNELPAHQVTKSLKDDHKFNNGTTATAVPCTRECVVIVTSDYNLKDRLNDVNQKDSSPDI

Compound	efficacy (maximal response) compared with proctolin [1]	effects (paralyzed or dead mites) (Varroa mites)	activity on empty-vector transfected cells (CHO cells, empty vector)	activity on honey bee FMRFamide receptor [2]	concentration required for hindgut contraction (Bombyx mori larval gut; Bombyx mori larval hindgut)	concentration required in the midgut to slightly reduce leucine uptake (Bombyx mori larval gut; Bombyx mori larval midgut)	effect on egg-laying activity of the queen (honey bee queen)
CC(C)C[C@H](NC(=O)[C@H](Cc1ccc(O)cc1)NC(=O)[C@@H](N)CCCNC(=N)N)C(=O)N1[C@H](C(=O)N[C@H](C(=O)O)[C@@H](C)O)C[C@@H]2CCCC[C@@H]21 [Analog 2336, RYL[Oic]T] (H-RYL[Oic]T-OH; N-terminus and C-terminus assumed)	higher than that of proctolin	100%	–	–	–	–	–
RYLPT [Proctolin, RYLPT]	–	–	did not show any activity	no activities	180 µM	10 µM	increased the egg-laying activity
